Test results: ChEMBL document CHEMBL1151078, “An efficient synthesis of short-chain sphingomyelin analogs and their susceptibility to hydrolysis catalyzed by sphingomyelinase” (1997)

test system: Bacillus cereus; experiment: Initial velocity (v) of the hydrolysis catalyzed by Bacillus cereus sphingomyelinase was measured; assay type: functional

SMILES	Velocity
CCCCCCC[C@H](O)[C@H](COP(=O)([O-])OCC[N+](C)(C)C)NC(=O)CCCCC	5.08 µM/min/mg
CCCCCCC[C@@H](O)[C@H](COP(=O)([O-])OCC[N+](C)(C)C)NC(=O)CCCCC	109.15 µM/min/mg
CCCCC/C=C/[C@H](O)[C@H](COP(=O)([O-])OCC[N+](C)(C)C)NC(=O)CCCCC	11.17 µM/min/mg
CCCCC/C=C/[C@@H](O)[C@H](COP(=O)([O-])OCC[N+](C)(C)C)NC(=O)CCCCC	136.31 µM/min/mg
